The values that follow come from patent publication US20080051413A1, “Nitrophenylpiperazine derivative of xanthine which relaxes tracheal airway and increases respiratory performance” (KAOHSIUNG MEDICAL UNIVERSITY, priority 2006, published 2008).

The target in assay [1] is T1, PDE3 purified from human platelets (Homo sapiens, UniProt Q14432).
T1 construct: PDE3 and PDE5 purified from human platelets; from tissue; host or cells: human platelets
Kind of assay: Phosphodiesterase activity, PDE3. The format is biochemical. As to conditions: 10 _M compound, n = 3.
Description: PDE3 and PDE5 purified from human platelets and PDE4 purified from human U-937 pronocytic cells were used. Test compound (10 _M) or vehicle was incubated with 0.2 _g of enzyme and 1 _M cAMP containing 0.01 _M [^3H]cAMP in Tris buffer, pH 7.5, for 20 min at 25_. The reaction was terminated by boiling for 2 min, and the resulting cAMP was converted to adenosine by the addition of 10 mg/ml snake venom nucleotidase, which is followed by a further incubation at 37_for 10 min. Unhydrolyzed cAMP was bound to AG1-X2 resin, and the remaining [^3H]adenosine in the aqueous phase was quantitated by scintillation counting.

Assay [2] has as its system PDE4 purified from human U-937 pronocytic cells. Kind of assay: Phosphodiesterase activity, PDE4. The format is biochemical. As to conditions: 10 _M compound, n = 3. How it is done:
Phosphodiesterase Activity: PDE activity was determined by the method of Nicholson et al. (Nicholson C D, Challiss R A, and Shahid M (1991) Differential modulation of tissue function and therapeutic potential of selective inhibitors of cyclic nucleotide phosphodiesterase isonzymes. Trends Pharmaclo Sci 12:19-27). PDE3 and PDE5 purified from human platelets and PDE4 purified from human U-937 pronocytic cells were used. Test compound (10 _M) or vehicle was incubated with 0.2 _g of enzyme and 1 _M cAMP containing 0.01 _M [^3H]cAMP in Tris buffer, pH 7.5, for 20 min at 25_. The reaction was terminated by boiling for 2 min, and the resulting […] was converted to adenosine by the addition of 10 mg/ml snake venom nucleotidase, which is followed by a further incubation at 37_for 10 min. Unhydrolyzed cAMP was bound to AG1-X2 resin, and the remaining [^3H]adenosine in the aqueous phase was quantitated by scintillation counting.

Assay [3] has as its target T2, PDE5 purified from human platelets (Homo sapiens, UniProt O76074).
T2 construct: PDE3 and PDE5 purified from human platelets; from tissue; host or cells: human platelets
Kind of assay: Phosphodiesterase activity, PDE5. As to conditions: 10 _M compound, n = 3. Type of assay: biochemical.
Description: The reaction was terminated by boiling for 2 min, and the resulting GMP was converted to adenosine by the addition of 10 mg/ml snake venom nucleotidase, which was followed by a further incubation at 37_ for 10 min. Unhydrolyzed cGMP was bound to AG1-X2 resin, and the remaining [^3H]guanosine in the aqueous phase was quantitated by scintillation counting.

The subject of another assay is respiratory performance. In words: Pulmonary function after i.v. injection (RL, Cdyn, tidal volume). The format is in vivo. As to conditions: 1 mg/kg i.v., guinea pig, n = 3. The protocol: Animals: Male Dunkin Harley guinea pigs (350-450 g) were provide by the National Laboratory Animal Breeding and Research Center (Taipei, Taiwan) and housed under conditions of constant temperature and controlled illumination. Food and water were available and libitum. The study was approved by the Animal Care and Use Committee of the Kaohsiung Medical University.
Pulmonary Function: Guinea pegs (350-450 g) were anesthetized with pentobarbital (40 mg/kg i.p.) and maintained with further i.v. doses of 2 to 5 mg/kg when required according to methods previously described (Wu B N, Lin R J, Lo Y C, Shen K P, Wang C C, Lin Y T, and Chen I J (2004) KMUP-1, a xanthine derivative, induces relaxation of guinea-pig isolated trachea: the role of the epithelium, cyclic nucleotides and K^+ channels, Br J Pharmacol 142:1105-1114). The animal was tethered in a supine position, and the trachea was cannulated below the larynx with a short tracheal cannula via a tracheotomy. Tracheal pressure was measured by a catheter connected to the side arm of the tracheal cannula. The carotid artery and jugular vein were cannulated to monitor blood pressure and heart rate and for drug administration, respectively. Throughout the experiment, the body temperature of the guinea pig was maintained at 37_. Measurements of pulmonary cardiac function were carried out as previously described (Hsu T H, Lai Y L, and Kou Y R (1998) Acetylcholine and tachykinin receptor antagonists attenuate wood smoke-induced bronchoconstriction in Guinea pigs. Eur J Pharmacol 360:175-183). Total lung resistance (RL) and dynamic lung compliance (Cdyn) were measured on a breath-by-breath basis using a computer equipped with an A/D interface (DAS 1600; Buxco Electronics, Inc., Wilmington, N.C.) and software (version 1.5.7; Buxco Electronics, Inc.). Results obtained from the computer analysis were checked for accuracy by comparison with those calculated manually.
Animals were allowed to stabilize for 10 min following surgical manipulations before the test agent was administered. Intratracheal instillation was performed using a catheter placed through the tracheal tube into the bronchial system. The catheter connected to a 1-ml syringe was inserted into the trachea cannula extending 1 cm beyond the tip of the cannula for instillation of drug or vehicle. The instillation was followed by rapid intratracheal injection of 0.5 ml of air to facilitate deposition of drug or vehicle into the lungs as in the modified methods of Chung et al. (2001)(Chung W H, Bennett B M, Racz W J, Brien J F, and […] Fischer 344 rats during aminodarone-induced pulmonary fibrosis. Am J Physiol 281:L1180-L1188). The animals were pretreated intratracheally with KMUP-3 (0.5, 1.0, and 2.0 mg/kg/150 _l of saline) or an equivalent volume (150 _l) of vehicle 15 min before TNF-_(0.01 mg/kg/300 _l saline) was instilled to induce acute bronchoconstriction. In another experiments, KMUP-3 or KMUP-1 (1.0 mg/kg i.v.) were used to compare the effects on respiratory performance, indicated by changes of tidal volume, total RL, and Cdyn.

T1 sequence (Q14432 whole entry): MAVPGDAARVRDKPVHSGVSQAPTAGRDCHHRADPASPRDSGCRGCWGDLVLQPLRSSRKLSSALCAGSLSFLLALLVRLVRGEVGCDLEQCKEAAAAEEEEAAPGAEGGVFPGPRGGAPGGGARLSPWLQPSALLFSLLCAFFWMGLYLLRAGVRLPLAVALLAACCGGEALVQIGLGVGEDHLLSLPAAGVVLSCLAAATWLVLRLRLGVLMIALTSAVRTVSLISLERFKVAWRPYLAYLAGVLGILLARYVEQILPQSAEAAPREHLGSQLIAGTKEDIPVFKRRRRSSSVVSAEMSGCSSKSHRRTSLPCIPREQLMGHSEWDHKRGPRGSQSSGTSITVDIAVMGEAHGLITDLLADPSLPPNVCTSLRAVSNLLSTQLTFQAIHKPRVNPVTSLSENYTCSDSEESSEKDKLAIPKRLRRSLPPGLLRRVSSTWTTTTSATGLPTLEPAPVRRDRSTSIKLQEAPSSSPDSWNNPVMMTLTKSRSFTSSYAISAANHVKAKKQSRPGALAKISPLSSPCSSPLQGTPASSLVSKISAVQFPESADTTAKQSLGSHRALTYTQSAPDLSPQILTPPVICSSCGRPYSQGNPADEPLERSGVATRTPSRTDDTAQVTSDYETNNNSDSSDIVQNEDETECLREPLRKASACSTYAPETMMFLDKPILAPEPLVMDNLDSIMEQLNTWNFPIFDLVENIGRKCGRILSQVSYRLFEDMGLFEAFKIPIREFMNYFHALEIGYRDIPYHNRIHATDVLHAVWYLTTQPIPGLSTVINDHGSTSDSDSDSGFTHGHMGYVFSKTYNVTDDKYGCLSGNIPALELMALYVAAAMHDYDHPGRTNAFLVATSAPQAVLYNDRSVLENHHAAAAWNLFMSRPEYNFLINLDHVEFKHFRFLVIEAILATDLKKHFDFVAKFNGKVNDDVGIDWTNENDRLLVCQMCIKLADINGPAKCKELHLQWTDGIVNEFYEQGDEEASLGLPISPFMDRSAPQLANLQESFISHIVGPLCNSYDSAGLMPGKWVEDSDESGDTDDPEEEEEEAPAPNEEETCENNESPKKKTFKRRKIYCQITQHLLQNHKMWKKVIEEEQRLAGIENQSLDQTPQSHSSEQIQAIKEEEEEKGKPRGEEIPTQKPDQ

Consider `Cn1c(=O)c2c(ncn2CCN2CCN(c3ccccc3Cl)CC2)n(C)c1=O` [KMUP-1, reference compound], for which, in assay [1], the PDE3 inhibition came to 23 ± 2.2%. Moreover, the “PDE4 Inhibition” value in assay [2] is on record as 18 ± 2.3%. For the same compound, the “PDE5 Inhibition” value in assay [3] was 29 ± 2.5%. In the assay on respiratory performance, the “Cdyn, Maximum change of baseline (%)” value was 35 ± 4.5%; the “RL, Maximum change of baseline (%)” value was −20 ± 3.5%; the “Tidal Volume, Maximum change of baseline (%)” value turned out to be 2.8 ± 0.2%.
